Consider seven compounds from ChEMBL document CHEMBL1201862, “PubChem BioAssay data set” (2004).

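All cell lines were grown in 96-well plates and treated with compound for 48 hours. At the GI50, growth is halved.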 Active and inactive are the calls of the source. Cut-off read from the data, not from the text of the source: active = GI50 up to about 1.1 µM and inactive = higher. Where a SMILES comes first, the peptide text is derived from it. [ ]: non-standard residue; d: D form. The star is where a group is joined. ξ: configuration not given here. ξD = NC(CC(=O)O)C(=O)O; Ac3c = NC1(C(=O)O)CC1; Boc = CC(C)(C)OC(=O)*; OBn = c1ccc(CO*)cc1 Where only a bound is given, the exact number is not on record here.

Test in all cases: NCI anticancer screen, dose series, 48 h
Experiment [1] has as its system OVCAR-3.
The test system of experiment [2] is Hs-578T.
The test system of experiment [3] is OVCAR-4.
For experiment [4], the system named is BT-549.
The test system of experiment [5] is EKVX.
In experiment [6] the test system is CAKI-1.
Experiment [7] has as its system 786-0.
Experiment [8] relates to NCI-H522.
The test system of experiment [9] is MDA-MB-435.
Experiment [10] concerns COLO 205.
Experiment [11] has as its system SF-539.
Experiment [12] relates to SF-295.
Experiment [13] concerns A549.
Experiment [14] concerns SF-268.
The test system of experiment [15] is SNB-19.
Experiment [16] relates to SK-MEL-5.
The test system of experiment [17] is OVCAR-5.
Experiment [18] relates to RPMI-8226.
The subject of experiment [19] is LOX IMVI.
For experiment [20], the system named is CCRF-CEM.

For `CCCc1ccc(OCC(=O)N/N=C/c2c(-c3ccccc3)[nH]c3ccccc23)cc1`, the GI50 was 24.5 µM (inactive) in experiment [1]; 28.4 µM (inactive) in experiment [2]; 8.32 µM (inactive) in experiment [3]; 13.8 µM (inactive) in [4]; 12.7 µM (inactive) in experiment [5]; 21.1 µM (inactive) in experiment [6]. The GI50 in [7] was 14.1 µM (inactive); in experiment [8], 14.6 µM (inactive); in [9], 2.77 µM (inactive); in experiment [10] it was 3.43 µM (inactive); in [11] it was 16.2 µM (inactive); in experiment [12] it was 8.69 µM (inactive). Further, the GI50 in experiment [13] was 8.17 µM (inactive); in [14], 27.7 µM (inactive); in experiment [15], 35.8 µM (inactive); in [16] it was 8.43 µM (inactive); in experiment [17], 22.4 µM (inactive); in experiment [18], 5.48 µM (inactive). Besides, the GI50 in [19] was 9.38 µM (inactive); in experiment [20], 5.98 µM (inactive).
Regarding `O=C(/C=C/c1ccc(O)cc1)c1cc(O)cc(O)c1`, the GI50 is 15.3 µM (inactive) in experiment [1]; 29.9 µM (inactive) in [2]; 20.6 µM (inactive) in experiment [3]; 14.3 µM (inactive) in experiment [4]; 17.3 µM (inactive) in [5]; 14.4 µM (inactive) in experiment [6]. For the same compound, the GI50 in experiment [7] is 16.6 µM (inactive); in experiment [8], 3.95 µM (inactive); in [9], 14.2 µM (inactive); in experiment [10], 18 µM (inactive); in experiment [11], 13.5 µM (inactive); in [12] it was 15.7 µM (inactive). The GI50 in experiment [13] is 16.5 µM (inactive); in experiment [14], 19.8 µM (inactive); in experiment [15], 16.7 µM (inactive); in [16], 15.5 µM (inactive); in experiment [17], 13.8 µM (inactive); in experiment [18], 2.16 µM (inactive). Also, the GI50 is 4.32 µM (inactive) in experiment [19] and 3.36 µM (inactive) in [20].
Take `COC(=O)C1(NC(=O)C(CC(=O)OCc2ccccc2)NC(=O)OC(C)(C)C)CC1` (stereo not given) (Boc-[ξD](OBn)-[Ac3c]-OMe): the GI50 in experiment [1], in [2], in experiment [3], in experiment [4], in experiment [5] and in experiment [6] was > 100 µM (inactive) in each case. Besides, the GI50 in [7], in [8], in experiment [9], in [10], in experiment [11] and in experiment [12] was > 100 µM (inactive) in each case. The GI50 in experiment [13], in experiment [14], in experiment [15], in experiment [16], in experiment [17] and in [18] was > 100 µM (inactive) throughout. For the same compound, the GI50 in experiment [19] and in [20] was > 100 µM (inactive) throughout.
In the case of `Cc1nnc2sc(NN)nn12`, the GI50 in experiment [1], in [2], in experiment [3], in experiment [4], in experiment [5] and in experiment [6] was > 100 µM (inactive) each time. For the same compound, the GI50 in [7], in experiment [8], in [9], in experiment [10], in experiment [11] and in experiment [12] was > 100 µM (inactive) each time. The GI50 in experiment [13], in experiment [14], in [15], in experiment [16], in [17] and in [18] was > 100 µM (inactive) throughout. Besides, the GI50 in [19] is > 100 µM (inactive); in experiment [20] it was 41.4 µM (inactive).
For `Cc1nc(O)c(O)c(CN2CCCCC2)n1`, the GI50 in experiment [1], in experiment [2], in experiment [3], in [4], in experiment [5] and in [6] was > 100 µM (inactive) each time. Also, the GI50 in experiment [7], in experiment [8], in experiment [9], in experiment [10], in [11] and in experiment [12] was > 100 µM (inactive) throughout. Further, the GI50 in experiment [13], in experiment [14], in experiment [15], in [16], in experiment [17] and in [18] was > 100 µM (inactive) throughout. For the same compound, the GI50 in experiment [19] and in experiment [20] was > 100 µM (inactive) in each case.
For the compound `CC(=O)NCCCCCCNC(C)=O` [HEXAMETHYLENEBISACETAMIDE], the GI50 is 8180 µM (inactive) in experiment [1]; 5790 µM (inactive) in [2]; 6550 µM (inactive) in experiment [3]; > 10000 µM (inactive) in [4]; 7280 µM (inactive) in experiment [5]; 1790 µM (inactive) in experiment [6]. Further, the GI50 is > 10000 µM (inactive) in experiment [7]; 3230 µM (inactive) in experiment [8]; 4010 µM (inactive) in experiment [9]; 5380 µM (inactive) in experiment [10]; 6070 µM (inactive) in [11]; 6370 µM (inactive) in experiment [12]. Also, the GI50 in [13] is 2290 µM (inactive); in [14] it was 8910 µM (inactive); in experiment [15], 8510 µM (inactive); in experiment [16], 6700 µM (inactive); in experiment [17], 8240 µM (inactive); in experiment [18], 4650 µM (inactive). The GI50 was 4680 µM (inactive) in experiment [19] and 7670 µM (inactive) in experiment [20].
`C=C1CC(Cn2ccc(=O)[nH]c2=O)(c2ccc(Cl)cc2)OC1=O` (stereo not given): the GI50 was 7.1 µM (inactive) in experiment [1]; 10.5 µM (inactive) in experiment [2]; 1.88 µM (inactive) in experiment [3]; 4.1 µM (inactive) in experiment [4]; 16.4 µM (inactive) in experiment [5]; 2.42 µM (inactive) in experiment [6]. Further, the GI50 was 2.04 µM (inactive) in [7]; 0.839 µM (active) in experiment [8]; 8.15 µM (inactive) in [9]; 1.73 µM (inactive) in experiment [10]; 15.6 µM (inactive) in experiment [11]; 18.8 µM (inactive) in experiment [12]. The GI50 was 16.9 µM (inactive) in [13]; 19.8 µM (inactive) in experiment [14]; 31.4 µM (inactive) in experiment [15]; 3.05 µM (inactive) in [16]; 15.7 µM (inactive) in experiment [17]; 1.28 µM (inactive) in experiment [18]. In addition, the GI50 in experiment [19] is 2.14 µM (inactive); in experiment [20] it was 1.63 µM (inactive).
